Measured values published in paper PMC10148624, “Discovery of diarylpyrimidine derivatives bearing piperazine sulfonyl as potent HIV-1 nonnucleoside reverse transcriptase inhibitors” (Communications Chemistry, 2023).
Like-named read-outs stand apart in the source and are kept apart here. Marks after values point to notes of the source that are not given here.

Columns and labels:
[1] = tested on: HIV-1 K103N/Y181C double mutant (RES056); settings: cited from earlier work
[2] = tested on: HIV-1 WT (IIIB); settings: cited from earlier work; for EC50: MT-4 cells, MTT method, same laboratory, same method
[3] = tested on: MT-4 cells; settings: mock-infected MT-4 cells, MTT method, same laboratory; cited from earlier work
[4] = tested on: HIV-1 F227L/V106A; assay: Anti-HIV-1 activity against F227L/V106A mutant strain, MTT method in MT-4 cells; type: cell-based; settings: Human immunodeficiency virus 1, MT4, read-out: EC50 F227L/V106A
From the text: (§1) According to the anti-HIV-1(WT) results, the promising compounds 18a(1–5), 18b(1–5) and 18c1 were chosen to further evaluate their inhibitory potency against the prevalent HIV-1 mutations, including L100I, K103N, Y181C, Y188L, E138K, and F227L/V106A. […]. page 20:
(§2) or mock-infected wells of the microtiter tray. Mock-infected cells were used to evaluate
(§3) supernatant was discarded.
(§4) Five days after infection,
(§5) 4 cells by 50%. […]

[5] = tested on: HIV-1 L100I; assay: microbe, parasite or virus in culture; type: cell-based; settings: Human immunodeficiency virus 1, MT4, read-out: EC50 L100I
Protocol: (§6) compounds were made directly in flat-bottomed 96-well microtiter trays by adding 100 μL medium to the 25 μL stock solution and transferring 25 μL of this solution to another well that contained 100 μL medium using a Biomek 3000 robot (Beckman Instruments, Fullerton, CA). Untreated control HIV- and mock-infected cell samples were included for each sample. HIV-1 WT strain (IIIB), HIV-1 drug-resistant strains including […]
(§7) (50% cell culture infectious dose) or culture medium was added to either the infected or mock-infected wells of the microtiter tray. Mock-infected cells were used to evaluate the effect of test compounds on uninfected cells in order to assess its cytotoxicity.
(§8) Exponentially growing MT-4 cells were centrifuged for 5 min at 1000 rpm and the supernatant was discarded.
(§9) 50 μL volumes were transferred to the microtiter tray wells. Five days after infection, the viability of mock- and HIV-infected cells was examined spectrophotometrically by […]
(§10) concentration of the test compound that reduced the viability of the mock-infected MT- […]

[6] = tested on: HIV-1 E138K; assay: microbe, parasite or virus in culture; type: cell-based; settings: Human immunodeficiency virus 1, MT4, read-out: EC50 E138K
Protocol: as §6, §7, §8, §9, §10

[7] = tested on: HIV-1 K103N; assay: Anti-HIV-1 activity against K103N mutant strain, MTT method in MT-4 cells; type: cell-based; settings: Human immunodeficiency virus 1, MT4, read-out: EC50 K103N
From the text: as §1, §2, §3, §4, §5

[8] = tested on: HIV-1 Y188L; assay: Anti-HIV-1 activity against Y188L mutant strain, MTT method in MT-4 cells; type: cell-based; settings: Human immunodeficiency virus 1, MT4, read-out: EC50 Y188L
From the text: as §1, §2, §3, §4, §5

[9] = tested on: HIV-1 Y181C; assay: Anti-HIV-1 activity against Y181C mutant strain, MTT method in MT-4 cells; type: cell-based; settings: Human immunodeficiency virus 1, MT4, read-out: EC50 Y181C, MT-4 cells, MTT method, mean ± SD, n ≥ 4
From the text: as §2, §3, §4, §5

[10] = set-up: method as in PMID 24008177; settings: cited from earlier work
[11] = tested on: HIV-1 WT (IIIB); assay: microbe, parasite or virus in culture; type: cell-based; settings: Human immunodeficiency virus 1, IIIB, MT4; MT-4 cells, MTT method, mean ± SD, n ≥ 4; read-out: EC50 IIIB
Protocol: (§11) The biological results were determined as EC50 (anti-HIV potency), CC50 (cytotoxicity) and SI (selectivity index, the ratio of CC50/EC50). […]
as §6, §7, §8, §9, §10

[12] = tested on: HIV-1 K103N/Y181C double mutant (RES056); assay: microbe, parasite or virus in culture; type: cell-based; settings: Human immunodeficiency virus 1, MT4, read-out: EC50 RES056
Protocol: as §11, §6, §7, §8, §9, §10

[13] = target: T1, WT HIV-1 RT (Human immunodeficiency virus type 1 group M subtype B, UniProt P04585); assay: biochemical
T1 construct: purchased Roche
Protocol: Section 4. HIV-1 RT inhibition assays
A reverse transcriptase (RT) assay kit produced by Roche was selected for the RT inhibition assay.3 All the reagents for performing the RT reaction came with the kit and the ELSIA procedures for RT inhibition assay was carried out following the description in the kit protocol. Briefly, the reaction mixture containing template/primer complex, viral nucleotides (dNTPs) and RT in the incubation buffer with or without inhibitors was incubated for 1 h at 37 °C . After that, the reaction mixture was transferred to a streptavidine coated microtiter plate and incubated for another 1 h at 37 °C to make sure retranscriptional cDNA chain that consisted biotin labeled dNTPs bound to streptavidine. Then unbound dNTPs were removed using washing buffer and anti-DIG-POD working solution was added. After incubation for 1 h at 37 °C , the DIG-labeled dNTPs incorporated in cDNA were bound to the anti-DIG-POD antibody. The unbound

[14] = target: CYP2D6 (Homo sapiens, UniProt P10635); assay: in vitro
Protocol: Fig. S3 Decomposition of the binding free energy (per-residue) into contributions from electrostatic energy, vdw energy, polar solvation energy, and non-polar solvation energy. a K103N-18b1. b […]
Section 7. Water solubility measurements
Water solubility was measured in phosphate buffer at pH 7.0 by using an HPLC-UV method.17 Compounds were initially dissolved in DMSO at 10 mg/mL 10 μL of this stock solution was spiked into purified water (1 mL) with the final DMSO concentration being 1%. The mixture was ultrasonic for 2 h at room temperature and restored at room temperature overnight. The saturated solution was filtrated through a filter membrane (pore size = 0.22 μm) and transferred to other Eppendorf tubes for analysis by HPLC-UV. The sample was performed in triplicate. For quantification, a model LC-20AT HPLC-UV (SHIMADZU) system was used with an Inertsil ® ODS-SP-C18 column (150 mm × 4.6 mm, 5 μm) and MeOH/water as eluant. The flow rate was 1.0 mL/min, and injection volume was 20 μL. Aqueous concentration was determined by comparison of the peak area of the saturated solution with a standard curve plotted peak area versus known concentrations, which were prepared by solutions in MeOH at 200, […]
(§12) Section 8. CYP enzyme inhibition assay […]
Section 9. Pharmacokinetics studies […]
approval from the Animal Ethical and Welfare Committee (AEWC). Ten male […]
Blood samples (200 μL of blood
Briefly, 50 μL of plasma was […]
tube, which was centrifuged at 3000g for 10 min. The supernatant layer was collected […]
Standard curves for 18b1 in […]
with an internal standard to blank plasma. Then all samples were quantified with an […]

[15] = target: CYP2C19 (Homo sapiens, UniProt P33261); assay: CYP enzyme inhibition assay in human liver microsome, CYP2C19; settings: read-out: IC50 CYP2C19; human liver microsome, probe substrate S-mephenytoin
From the text: as §12
(§13) Agilent 1200 LC/MSD (Agilent, USA).

[16] = target: T2, CYP1A2 (Homo sapiens, UniProt P05177); assay: in vitro; settings: microsomes
T2 sequence (P05177 1-516): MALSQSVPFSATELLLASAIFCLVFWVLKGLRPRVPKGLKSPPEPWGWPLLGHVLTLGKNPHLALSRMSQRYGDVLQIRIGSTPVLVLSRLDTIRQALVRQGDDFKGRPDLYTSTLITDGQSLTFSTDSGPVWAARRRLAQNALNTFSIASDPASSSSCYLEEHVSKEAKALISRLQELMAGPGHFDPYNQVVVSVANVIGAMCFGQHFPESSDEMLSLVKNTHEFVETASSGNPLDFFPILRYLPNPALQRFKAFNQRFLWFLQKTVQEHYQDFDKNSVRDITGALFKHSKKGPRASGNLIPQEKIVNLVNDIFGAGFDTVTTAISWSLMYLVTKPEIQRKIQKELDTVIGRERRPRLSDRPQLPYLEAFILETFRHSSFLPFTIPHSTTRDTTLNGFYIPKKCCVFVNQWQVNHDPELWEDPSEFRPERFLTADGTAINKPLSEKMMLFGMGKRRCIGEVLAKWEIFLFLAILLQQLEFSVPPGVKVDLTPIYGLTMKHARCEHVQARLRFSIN
From the text: as §12, §13

[17] = target: CYP2C9 (Homo sapiens, UniProt P11712); assay: CYP enzyme inhibition assay in human liver microsome, CYP2C9; settings: read-out: IC50 CYP2C9; human liver microsome, probe substrate diclofenac
From the text: as §12, §13

[18] = target: CYP3A4 (Homo sapiens, UniProt P08684); assay: in vitro; settings: microsomes
From the text: as §12, §13

[19] = at pH 7.0; cited from earlier work

Sequence of CYP2D6 (P10635 whole entry): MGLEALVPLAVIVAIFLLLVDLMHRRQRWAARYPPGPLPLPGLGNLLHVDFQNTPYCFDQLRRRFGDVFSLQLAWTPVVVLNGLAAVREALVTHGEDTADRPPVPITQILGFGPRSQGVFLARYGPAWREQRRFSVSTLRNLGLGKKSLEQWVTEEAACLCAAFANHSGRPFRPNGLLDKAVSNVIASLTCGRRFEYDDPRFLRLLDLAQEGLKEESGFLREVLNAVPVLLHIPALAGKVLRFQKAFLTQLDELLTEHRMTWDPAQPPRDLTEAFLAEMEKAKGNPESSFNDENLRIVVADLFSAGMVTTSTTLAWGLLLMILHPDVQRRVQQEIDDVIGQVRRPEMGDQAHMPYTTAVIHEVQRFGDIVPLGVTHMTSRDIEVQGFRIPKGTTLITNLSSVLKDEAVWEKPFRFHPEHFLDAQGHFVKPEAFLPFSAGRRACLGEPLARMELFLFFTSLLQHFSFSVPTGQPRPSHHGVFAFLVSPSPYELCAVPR
Sequence of CYP2C19 (P33261 whole entry): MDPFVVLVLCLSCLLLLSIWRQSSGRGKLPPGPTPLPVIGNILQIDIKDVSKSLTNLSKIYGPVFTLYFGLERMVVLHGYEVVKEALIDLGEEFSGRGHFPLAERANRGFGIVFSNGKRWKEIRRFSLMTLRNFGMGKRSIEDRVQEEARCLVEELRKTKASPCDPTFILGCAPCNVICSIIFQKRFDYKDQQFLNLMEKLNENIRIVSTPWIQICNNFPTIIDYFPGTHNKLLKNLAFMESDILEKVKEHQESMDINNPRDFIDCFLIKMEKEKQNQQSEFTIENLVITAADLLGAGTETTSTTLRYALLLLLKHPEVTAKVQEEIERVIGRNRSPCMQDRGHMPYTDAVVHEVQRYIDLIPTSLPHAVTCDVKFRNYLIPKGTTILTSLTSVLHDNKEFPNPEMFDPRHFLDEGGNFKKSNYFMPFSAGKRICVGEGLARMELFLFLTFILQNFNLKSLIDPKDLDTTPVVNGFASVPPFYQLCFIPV
Sequence of CYP3A4 (P08684 whole entry): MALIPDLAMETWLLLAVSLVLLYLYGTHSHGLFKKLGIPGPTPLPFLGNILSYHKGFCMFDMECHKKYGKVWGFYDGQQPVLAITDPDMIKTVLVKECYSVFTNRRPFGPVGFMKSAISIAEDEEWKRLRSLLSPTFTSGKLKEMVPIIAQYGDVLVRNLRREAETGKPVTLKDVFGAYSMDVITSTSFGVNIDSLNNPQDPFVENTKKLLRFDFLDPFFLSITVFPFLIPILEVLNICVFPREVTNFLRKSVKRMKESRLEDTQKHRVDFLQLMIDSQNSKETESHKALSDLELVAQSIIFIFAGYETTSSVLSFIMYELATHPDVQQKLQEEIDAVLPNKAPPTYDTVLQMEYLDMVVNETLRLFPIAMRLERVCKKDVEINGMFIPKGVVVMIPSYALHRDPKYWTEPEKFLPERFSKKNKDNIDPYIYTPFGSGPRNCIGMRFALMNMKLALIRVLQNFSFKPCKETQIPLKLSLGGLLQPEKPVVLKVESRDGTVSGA
Sequence of CYP2C9 (P11712 whole entry): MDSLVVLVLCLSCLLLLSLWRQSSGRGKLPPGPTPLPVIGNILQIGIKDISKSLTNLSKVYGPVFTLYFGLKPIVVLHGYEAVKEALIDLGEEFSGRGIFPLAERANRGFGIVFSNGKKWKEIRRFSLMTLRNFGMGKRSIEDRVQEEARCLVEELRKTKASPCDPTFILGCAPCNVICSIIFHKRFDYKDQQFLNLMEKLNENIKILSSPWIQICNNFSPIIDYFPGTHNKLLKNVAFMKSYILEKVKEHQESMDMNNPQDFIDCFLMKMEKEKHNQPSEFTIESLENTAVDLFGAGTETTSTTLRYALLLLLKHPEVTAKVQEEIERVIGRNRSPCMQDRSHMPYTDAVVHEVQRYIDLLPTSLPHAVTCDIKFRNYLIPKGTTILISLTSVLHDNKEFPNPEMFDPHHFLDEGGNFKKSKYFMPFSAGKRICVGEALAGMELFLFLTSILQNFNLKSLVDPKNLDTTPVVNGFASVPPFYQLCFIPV

Cn1c(Cn2ccc(C(F)(F)F)c(Oc3cc(Cl)cc(C#N)c3)c2=O)n[nH]c1=O [DOR, doravirine]
EC50 ([1]; MT-4 cells, MTT method, same laboratory, same method): 15 ± 6 nM | SI RES056 ([1]; ratio of CC50/EC50): >20136 | EC50 [2]: 13 ± 4 nM | SI IIIB ([2]; ratio of CC50/EC50): >21,940 | CC50 [3]: > 294000 nM

Cc1cc(/C=C/C#N)cc(C)c1Oc1ccnc(Nc2ccc(CN3CCN(S(C)(=O)=O)CC3)cc2)n1 [BH-11c]
EC50 [4]: 210 ± 95 nM | EC50 [5]: 14 ± 5.3 nM | EC50 [6]: 9.4 ± 5 nM | EC50 [7]: 3.7 ± 1.6 nM | EC50 [8]: 1320 ± 220 nM

Cc1cc(C#N)cc(C)c1Oc1nc(Nc2ccc(C#N)cc2)nc(N)c1Br [ETR, etravirine]
EC50 [9]: 18 ± 3.8 nM | oral bioavailability (F) [10]: undetectable | EC50 [4]: 25 ± 7.2 nM | EC50 [11]: 3.3 ± 0.38 nM | EC50 [12]: 76 ± 25 nM | EC50 [6]: 18 ± 7.2 nM | IC50 [13]: 1350 ± 350 nM | IC50 at 10 min ([14]; human, microsomes, IC50 CYP2D6): > 10000 nM | IC50 ([14]; read-out: IC50 CYP2D6, human liver microsome, probe substrate dextromethorphan): 12000 nM | EC50 [7]: 4.3 ± 1 nM | IC50 [15]: 496 nM | IC50 at 10 min [16]: > 10000 nM | IC50 [17]: 277 nM | IC50 at 10 min [18]: > 10000 nM | water solubility [19]: <1^e μg/mL | EC50 [8]: 25 ± 7.6 nM

Cc1cc(/C=C/C#N)cc(C)c1Nc1ccnc(Nc2ccc(C#N)cc2)n1 [RPV, rilpivirine]
IC50 [13]: 430 ± 87 nM | EC50 [2]: 1 ± 0.27 nM
